Patent US8546451B2 (priority 2005, dated 2013)
pIC50: −log10 of the molar value. Marks after values point to notes of the source that are not given here.

What was measured:
[1] = Preliminary oral pharmacokinetics in monkeys; type: in vivo
Description: (§1) Formulations using polyethylene glycol 300 (PEG300) generally produced higher exposures than microemulsions prepared in Tween 80 diluted in deionized water. […] Importantly, in dogs the exposure in the male 30 mg/kg PEG300 oral dose group exceeded the exposure necessary to produce the maximal effect on prostate reduction in the rat model of LH suppression.

[2] = Oral bioavailability in rats; type: in vivo
Description: as §1

Human 17β-HSD5 = Human 17β-HSD5 (Homo sapiens (Human), UniProt P42330); assay: 17β-HSD5 enzyme activity assay; type: biochemical; conditions: 14C androstenedione to testosterone, TLC (FIG. 3)
hERG channel = hERG channel (Homo sapiens (Human), UniProt Q12809); assay: hERG channel inhibition in vitro; type: cell-based
Description: Compound IV exerts little or no in vitro inhibitory effects (IC50≧300 μM) on the hERG channel.

rats = assay: Gastrointestinal effects in rats; type: in vivo; conditions: oral
[3] = tested on: rat bone, organ weight, and serum hormone parameters; assay: Bone preservation despite reduction of LH and testosterone in rats; type: in vivo; conditions: for Bone Mineral Density / FSH / LH / Levator Ani Muscle weight / Percent Bone Volume (BV/TV) / Prostate weight / Seminal Vesicles weight: Intact
CYP3A4 = assay: CYP450 induction in vitro, CYP3A4; type: in vitro ADME
[4] = biological target: retinoid X receptor (RXR-α) (Homo sapiens (Human), UniProt P19793); assay: Cross-reactivity transcriptional activation assay, RXR-α; type: cell-based; conditions: agonist and antagonist modes
Source text: (§2) Compound IV was screened for cross-reactivity against rat isoforms of glucocorticoid receptor (GR), mineralocorticoids receptor (MR), progesterone receptor (PR), androgen receptor (AR) and human isoforms of farnesoid X receptor (FXR), liver X receptor (LXR), peroxisome proliferator-activated receptors (PPAR-α and PPAR-γ), and retinoid X receptor (RXR-α) in both agonist and antagonist modes in transcriptional activation assays.

[5] = tested on: isolated canine Purkinje fibers; assay: Action potential duration in isolated canine Purkinje fibers; conditions: 10 and 100 μM
[6] = biological target: progesterone receptor (PR) (Rattus norvegicus (Rat), UniProt Q63449); assay: Cross-reactivity transcriptional activation assay, PR; type: cell-based; conditions: agonist and antagonist modes
Source text: as §2

telemetered dogs = assay: Hemodynamic and cardiac function in telemetered dogs; type: in vivo; conditions: any dose (up to 300 mg/kg)
androgen receptor (AR) = androgen receptor (AR) (Rattus norvegicus (Rat), UniProt P15207); assay: Cross-reactivity transcriptional activation assay, AR; type: cell-based; conditions: agonist and antagonist modes
Source text: as §2

human platelets = assay: In vitro human platelet aggregation assay (thrombin-induced); conditions: platelet rich plasma preincubated 30 seconds; thrombin 0.3 units
liver X receptor (LXR) = assay: Cross-reactivity transcriptional activation assay, LXR; type: cell-based, human; conditions: agonist and antagonist modes
Source text: as §2

CYP3A4/5 = assay: CYP450 inhibition in vitro, CYP3A4/5; type: in vitro ADME; conditions: at concentrations <30 μM
[7] = tested on: circulating androgen (primarily testosterone and dihydrotestosterone); assay: Suppression and recovery of androgen levels in intact male monkeys; type: in vivo, Cynomolgus monkeys; design: circulating androgen levels: unit not given here
Description: The effect of Compound IV on suppression and recovery of testosterone levels in intact male monkeys was evaluated in conjunction with an oral pharmacokinetic study. Three treatment naïve male Cynomolgus monkeys (2 to 3 years old) were administered Compound IV at 30 mg/kg daily by oral gavage for 7 consecutive days. Blood samples were collected and divided into serum and plasma for testosterone and Compound IV quantitative measurements, respectively.

Chain of retinoid X receptor (RXR-α) (P19793 whole entry, canonical isoform): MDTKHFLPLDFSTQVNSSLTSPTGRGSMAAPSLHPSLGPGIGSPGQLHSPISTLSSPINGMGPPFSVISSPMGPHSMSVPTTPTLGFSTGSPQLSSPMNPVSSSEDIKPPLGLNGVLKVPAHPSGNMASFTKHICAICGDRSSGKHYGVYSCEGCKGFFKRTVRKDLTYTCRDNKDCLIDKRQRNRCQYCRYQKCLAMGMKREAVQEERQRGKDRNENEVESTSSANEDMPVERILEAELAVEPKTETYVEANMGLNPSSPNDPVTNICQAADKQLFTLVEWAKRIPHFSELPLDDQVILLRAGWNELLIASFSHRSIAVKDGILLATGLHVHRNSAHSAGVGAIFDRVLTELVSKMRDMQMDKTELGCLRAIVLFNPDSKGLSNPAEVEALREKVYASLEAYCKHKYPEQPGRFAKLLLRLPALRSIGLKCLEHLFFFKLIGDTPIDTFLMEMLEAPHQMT
Chain of progesterone receptor (PR) (Q63449 whole entry): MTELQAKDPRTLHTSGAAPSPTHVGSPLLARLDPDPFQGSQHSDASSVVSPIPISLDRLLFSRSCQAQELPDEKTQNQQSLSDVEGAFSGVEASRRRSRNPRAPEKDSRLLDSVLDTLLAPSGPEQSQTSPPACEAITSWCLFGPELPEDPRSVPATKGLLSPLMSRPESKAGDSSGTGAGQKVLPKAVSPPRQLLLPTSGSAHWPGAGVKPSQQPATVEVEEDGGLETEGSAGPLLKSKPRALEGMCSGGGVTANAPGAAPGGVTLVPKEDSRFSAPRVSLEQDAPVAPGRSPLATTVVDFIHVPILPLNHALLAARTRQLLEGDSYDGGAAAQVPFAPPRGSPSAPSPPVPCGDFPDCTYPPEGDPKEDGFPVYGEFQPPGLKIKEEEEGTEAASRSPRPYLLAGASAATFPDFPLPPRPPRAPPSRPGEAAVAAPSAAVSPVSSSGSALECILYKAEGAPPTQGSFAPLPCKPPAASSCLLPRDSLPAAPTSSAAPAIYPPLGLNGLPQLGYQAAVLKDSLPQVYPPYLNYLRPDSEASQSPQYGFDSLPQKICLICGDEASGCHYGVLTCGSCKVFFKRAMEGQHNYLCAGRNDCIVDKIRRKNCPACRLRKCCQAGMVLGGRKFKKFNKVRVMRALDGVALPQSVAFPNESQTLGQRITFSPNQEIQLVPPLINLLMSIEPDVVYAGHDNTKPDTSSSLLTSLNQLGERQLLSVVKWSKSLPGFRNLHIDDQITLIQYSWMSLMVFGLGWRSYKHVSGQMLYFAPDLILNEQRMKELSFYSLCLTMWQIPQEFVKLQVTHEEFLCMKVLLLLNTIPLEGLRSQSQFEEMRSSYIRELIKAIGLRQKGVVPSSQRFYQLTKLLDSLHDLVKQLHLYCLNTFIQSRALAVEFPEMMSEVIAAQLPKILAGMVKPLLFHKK
Chain of hERG channel (Q12809 whole entry): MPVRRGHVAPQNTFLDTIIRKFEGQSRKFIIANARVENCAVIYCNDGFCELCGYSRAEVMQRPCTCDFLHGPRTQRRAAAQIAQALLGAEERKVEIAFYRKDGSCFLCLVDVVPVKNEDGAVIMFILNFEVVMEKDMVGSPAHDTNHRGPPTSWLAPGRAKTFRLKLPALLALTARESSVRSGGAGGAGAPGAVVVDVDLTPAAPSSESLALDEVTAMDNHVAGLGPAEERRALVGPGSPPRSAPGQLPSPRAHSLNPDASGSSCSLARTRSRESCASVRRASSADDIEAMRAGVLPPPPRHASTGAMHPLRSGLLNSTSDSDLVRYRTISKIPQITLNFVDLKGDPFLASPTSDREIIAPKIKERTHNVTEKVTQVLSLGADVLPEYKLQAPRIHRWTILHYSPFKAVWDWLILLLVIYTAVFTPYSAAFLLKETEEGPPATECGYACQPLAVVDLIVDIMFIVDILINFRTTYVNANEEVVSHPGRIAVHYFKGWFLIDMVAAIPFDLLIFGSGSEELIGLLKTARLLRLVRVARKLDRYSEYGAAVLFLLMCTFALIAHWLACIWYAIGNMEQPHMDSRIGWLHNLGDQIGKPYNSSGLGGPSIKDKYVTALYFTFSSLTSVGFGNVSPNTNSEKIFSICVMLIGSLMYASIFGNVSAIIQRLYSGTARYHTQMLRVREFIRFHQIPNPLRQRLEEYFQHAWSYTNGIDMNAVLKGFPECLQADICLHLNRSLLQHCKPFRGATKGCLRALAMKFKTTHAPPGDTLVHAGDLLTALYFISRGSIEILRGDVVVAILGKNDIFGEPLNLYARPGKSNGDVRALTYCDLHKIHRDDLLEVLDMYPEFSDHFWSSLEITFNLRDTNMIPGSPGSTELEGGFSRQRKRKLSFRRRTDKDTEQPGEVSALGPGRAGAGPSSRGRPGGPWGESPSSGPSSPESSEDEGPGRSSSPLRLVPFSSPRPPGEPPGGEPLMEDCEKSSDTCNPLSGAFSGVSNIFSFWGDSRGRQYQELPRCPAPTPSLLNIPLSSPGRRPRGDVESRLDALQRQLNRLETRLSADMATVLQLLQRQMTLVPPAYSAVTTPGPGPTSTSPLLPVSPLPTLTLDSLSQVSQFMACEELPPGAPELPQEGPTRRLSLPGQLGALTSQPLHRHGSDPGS
Chain of androgen receptor (AR) (P15207 whole entry S389L): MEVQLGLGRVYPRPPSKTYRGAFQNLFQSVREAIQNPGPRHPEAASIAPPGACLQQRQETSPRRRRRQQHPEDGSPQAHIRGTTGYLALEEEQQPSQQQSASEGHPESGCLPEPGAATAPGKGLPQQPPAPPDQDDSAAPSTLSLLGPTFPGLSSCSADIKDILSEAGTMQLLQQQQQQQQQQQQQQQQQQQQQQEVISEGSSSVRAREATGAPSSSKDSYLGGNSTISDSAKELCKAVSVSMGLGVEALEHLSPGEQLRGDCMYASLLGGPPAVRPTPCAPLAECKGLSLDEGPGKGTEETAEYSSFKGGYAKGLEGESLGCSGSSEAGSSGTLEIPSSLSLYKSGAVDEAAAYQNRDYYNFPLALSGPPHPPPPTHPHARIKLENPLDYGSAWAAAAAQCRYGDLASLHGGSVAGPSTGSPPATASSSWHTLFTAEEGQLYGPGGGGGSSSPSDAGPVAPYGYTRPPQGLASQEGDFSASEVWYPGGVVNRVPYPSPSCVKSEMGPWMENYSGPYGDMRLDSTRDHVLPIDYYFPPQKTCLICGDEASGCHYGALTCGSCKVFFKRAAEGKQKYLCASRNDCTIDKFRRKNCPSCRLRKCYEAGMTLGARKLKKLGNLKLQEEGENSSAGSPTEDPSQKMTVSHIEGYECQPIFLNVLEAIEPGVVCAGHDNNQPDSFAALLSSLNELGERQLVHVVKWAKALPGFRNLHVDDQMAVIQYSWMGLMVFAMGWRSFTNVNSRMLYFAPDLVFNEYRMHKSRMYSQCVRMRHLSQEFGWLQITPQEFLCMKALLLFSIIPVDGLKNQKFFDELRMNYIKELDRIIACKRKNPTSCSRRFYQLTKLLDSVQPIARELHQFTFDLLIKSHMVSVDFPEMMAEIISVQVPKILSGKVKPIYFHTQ
Chain of Human 17β-HSD5 (P42330 whole entry): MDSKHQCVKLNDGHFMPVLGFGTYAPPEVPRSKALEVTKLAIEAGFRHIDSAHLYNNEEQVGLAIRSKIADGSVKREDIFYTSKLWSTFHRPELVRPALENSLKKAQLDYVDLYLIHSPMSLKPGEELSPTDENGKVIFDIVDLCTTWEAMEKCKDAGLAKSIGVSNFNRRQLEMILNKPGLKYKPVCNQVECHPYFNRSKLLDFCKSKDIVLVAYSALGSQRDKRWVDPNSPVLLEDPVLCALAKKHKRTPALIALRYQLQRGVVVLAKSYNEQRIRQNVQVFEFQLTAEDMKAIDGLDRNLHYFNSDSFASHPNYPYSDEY

For `O=C(c1ccc(O)c(F)c1)N(c1ccc(O)cc1)c1ccc(F)cc1` [Compound IV, 3-fluoro-N-(4-fluorophenyl)-4-hydroxy-N-(4-hydroxyphenyl)benzamide], the “absorption following oral dosing” value [1] was “rapidly absorbed”, the oral bioavailability ([1]; preliminary) was “approximates or exceeds that in dogs” and the “absorption following oral dosing” value [2] was “rapidly absorbed”. For the same compound, the bioavailability ([2]; rat, in vivo, po, depending on the formulation) was 6 to 25%, the “effect on 17β-HSD5 enzyme activity” value (Human 17β-HSD5) was “partial inhibitory effect” and the pIC50 (hERG channel) was at most 3.52. The “gastrointestinal motility and gastric acidity” value (rats; 30 mg/kg) was “significant increase”, the peristalsis (rats; 30 to 300 mg/kg) was “significant increase” and the “Bone Mineral Density” value ([3]; 1 mg/kg per day oral) was 0.273^b g/cm^3. For the same compound, the FSH ([3]; 1 mg/kg per day oral) was 14.1^a,b ng/mL, the LH ([3]; 1 mg/kg per day oral) was 0.820^b ng/mL and the “Levator Ani Muscle weight” value ([3]; 1 mg/kg per day oral) was 80.0^a,b % of Intact. For the same compound, the “Percent Bone Volume (BV/TV)” value ([3]; 1 mg/kg per day oral) was 20.0^b %, the Prostate weight ([3]; 1 mg/kg per day oral) was 69.2^a,b % of Intact and the “Seminal Vesicles weight” value ([3]; 1 mg/kg per day oral) was 44.6^a,b % of Intact. The “Bone Mineral Density” value ([3]; 10 mg/kg per day oral) was 0.326^a,b g/cm^3, the FSH ([3]; 10 mg/kg per day oral) was 5.48^a,b ng/mL and the LH ([3]; 10 mg/kg per day oral) was 0.060^a,b ng/mL. For the same compound, the “Levator Ani Muscle weight” value ([3]; 10 mg/kg per day oral) was 58.1^a % of Intact, the “Percent Bone Volume (BV/TV)” value ([3]; 10 mg/kg per day oral) was 25.9^a,b % and the Prostate weight ([3]; 10 mg/kg per day oral) was 30.7^a,b % of Intact. The “Seminal Vesicles weight” value ([3]; 10 mg/kg per day oral) was 12.8^a,b % of Intact, the “Bone Mineral Density” value ([3]; 30 mg/kg per day oral) was 0.326^a,b g/cm^3 and the FSH ([3]; 30 mg/kg per day oral) was 6.32^a,b ng/mL. The LH ([3]; 30 mg/kg per day oral) was 0.078^a,b ng/mL, the “Levator Ani Muscle weight” value ([3]; 30 mg/kg per day oral) was 56.1^a % of Intact and the “Percent Bone Volume (BV/TV)” value ([3]; 30 mg/kg per day oral) was 25.5^a,b %. The Prostate weight ([3]; 30 mg/kg per day oral) was 30.1^a,b % of Intact, the “Seminal Vesicles weight” value ([3]; 30 mg/kg per day oral) was 14.4^a,b % of Intact and the “dose levels with significant reduction of LH” value ([3]; intact animals) was at least 10 mg/kg per day. For the same compound, the “bone loss associated with LH suppression” value ([3]; intact male rats, orally administered) was “completely prevented the bone loss”, the “induction of CYP3A4” value (CYP3A4) was “does not induce” and the “agonist or antagonist activity” value [4] was “did not display any agonist or antagonist activity”. For the same compound, the APD50 [5] was “decreased”, the APD90 [5] was “decreased” and the “agonist or antagonist activity” value [6] was “did not display any agonist or antagonist activity”. The “hemodynamic or cardiac function (blood pressure, heart rate, electrocardiogram morphology or QT intervals)” value (telemetered dogs) was “did not affect”, the “agonist or antagonist activity” value (androgen receptor (AR)) was “did not display any agonist or antagonist activity” and the “effect on thrombin-induced platelet aggregation” value (human platelets) was “decreased aggregation”. For the same compound, the “agonist or antagonist activity” value (liver X receptor (LXR)) was “did not display any agonist or antagonist activity”, the “inhibition of CYP3A4/5” value (CYP3A4/5) was “does not inhibit” and the “decrease of circulating androgen levels compared to baseline” value ([7]; 30 mg/kg daily oral gavage for 7 days) was “up to 47%”. The circulating androgen levels ([7]; Day 2, 30 mg/kg daily oral gavage, mean±SEM) was 997±104, the circulating androgen levels ([7]; Day 6, 30 mg/kg daily oral gavage, mean±SEM) was 852±136 and the circulating androgen levels ([7]; after 18-day drug-free recovery period) was 1757.7±369.5.
